Source: patent publication US8163921B2, “Hepatitis C virus inhibitors” (Bristol-Myers Squibb Company, priority 2008, dated 2012)
Like-named read-outs stand apart in the source and are kept apart here.

What was measured:
[1] = target: T1, HCV NS3/4A protease complex, BMS strain (UniProt P27958, C1454S/C1711G, species not given); assay: FRET peptide assay to monitor HCV NS3/4A proteolytic activity (BMS strain); format: biochemical, HCV genotype 1a; settings: read-out: IC50 Range, HCV NS3/4A enzyme assay
T1 construct: other: HCV NS3/4A enzyme assay; class symbols; numeric values; fused on or other part: three-lysine solubilising tail at the C-terminus of NS4A; purified on Ni-NTA from the pET21b vector (His tag implied)
Procedure, shortened: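 Recombinant HCV NS3/4A protease complex (BMS strain, genotype 1a), 2-3 nM final (300 pM with 50 μg/ml BSA for very potent compounds), incubated with RET S1 EDANS/DABCYL depsipeptide substrate at 2 μM final. Buffer: 50 mM HEPES pH 7.5, 0.15 M NaCl, 0.1% Triton, 15% glycerol, 10 mM βME. Cleavage followed in real time by fluorescence.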

[2] = tested on: HCV replicon in HUH-7 cells; assay: HCV replicon FRET assay; format: cell-based, HCV strain 1b; settings: Hepatitis C virus

| SMILES | IC50 ([1]; class symbols) [nM] | EC50 ([2]; Huh-7, read-out: EC50 Range) [nM] | IC50 ([1]; numeric values) [nM] | EC50 ([2]; Huh-7, HCV replicon cell assay, numeric values, read-out: EC50 Range) [nM] |
| --- | --- | --- | --- | --- |
| C=C[C@@H]1C[C@]1(NC(=O)[C@@H]1C[C@@H](Oc2ncc(OC)c3ccc(Cl)cc23)CN1C(=O)[C@@H](Nc1nc(-c2c(OC)cccc2OC)cs1)C(C)(C)C)C(=O)NS(=O)(=O)C1CC1 [Example 58] | 1 to 20 | 1 to 50 | – | – |
| C=C[C@@H]1C[C@]1(NC(=O)[C@@H]1C[C@@H](Oc2ncc(OC)c3ccc(Cl)cc23)CN1C(=O)[C@@H](Nc1nc(-c2cc(Cl)c(C)cc2OC)cs1)C(C)(C)C)C(=O)NS(=O)(=O)C1CC1 [Example 59] | 1 to 20 | 1 to 50 | – | – |
| C=C[C@@H]1C[C@]1(NC(=O)[C@@H]1C[C@@H](Oc2ncc(OC)c3ccc(Cl)cc23)CN1C(=O)[C@@H](Nc1nc(-c2cc(-c3ccccc3)no2)cs1)C(C)(C)C)C(=O)NS(=O)(=O)C1CC1 [Example 85] | 1 to 20 | 1 to 50 | – | – |
| C=C[C@@H]1C[C@]1(NC(=O)[C@@H]1C[C@@H](Oc2ncc(OC)c3ccc(Cl)cc23)CN1C(=O)[C@@H](Nc1nc(-c2cc(C)c(Cl)cc2F)cs1)C(C)(C)C)C(=O)NS(=O)(=O)C1CC1 [Example 92] | 1 to 20 | 1 to 50 | – | – |
| C=C[C@@H]1C[C@]1(NC(=O)[C@@H]1C[C@@H](Oc2ncc(OC)c3ccc(Cl)cc23)CN1C(=O)[C@@H](Nc1nc(-c2ccsc2)cs1)C(C)(C)C)C(=O)NS(=O)(=O)C1CC1 [Example 93] | 1 to 20 | 1 to 50 | – | – |
| COc1cnc(O[C@@H]2C[C@@H](C(=O)N[C@]3(C(=O)NS(=O)(=O)C4CC4)C[C@H]3CC(F)F)N(C(=O)[C@@H](Nc3nc(-c4ccc(F)c(C(F)(F)F)c4)cs3)C(C)(C)C)C2)c2cc(Cl)ccc12 [Example 97, (2S,4R)-4-(7-chloro-4-methoxyisoquinolin-1-yloxy)-N-((1R,2S)-1-(cyclopropylsulfonylcarbamoyl)-2-(2,2-difluoroethyl)cyclopropyl)-1-((S)-2-(4-(4-fluoro-3-(trifluoromethyl)phenyl)thiazol-2-ylamino)-3,3-dimethylbutanoyl)pyrrolidine-2-carboxamide] | 1 to 20 | 1 to 50 | – | – |
| COc1cnc(O[C@@H]2C[C@@H](C(=O)N[C@]3(C(=O)NS(=O)(=O)C4CC4)C[C@H]3CC(F)F)N(C(=O)[C@@H](Nc3nc(-c4cc(-c5ccc(Cl)cc5)no4)cs3)C(C)(C)C)C2)c2cc(Cl)ccc12 [Example 98] | 1 to 20 | 1 to 50 | – | – |
| COc1cnc(O[C@@H]2C[C@@H](C(=O)N[C@]3(C(=O)NS(=O)(=O)C4CC4)C[C@H]3CC(F)F)N(C(=O)[C@@H](Nc3nc(-c4ccc(Oc5ccccc5)cc4)cs3)C(C)(C)C)C2)c2cc(Cl)ccc12 [Example 99] | 20 to 200 | 50 to 200 | – | – |
| C=C[C@@H]1C[C@]1(NC(=O)[C@@H]1C[C@@H](Oc2ncc(OC)c3ccc(Cl)cc23)CN1C(=O)C(C)Nc1nnnn1-c1ccccc1)C(=O)NS(=O)(=O)C1CC1 (stereo partly drawn) [Example 100] | – | – | 795 | 334 |
